From US10538487B2, “Sulfonylureas and related compounds and use of same” (priority 2015, dated 2020) come the findings set out here.

Structures are written as SMILES.

In general, IC50 refers to the concentration that inhibits the measured activity by half.

Tested on in the first series: not listed separately
In words: Single dose pharmacokinetic study in mice (iv 4 mg/Kg, po 20 mg/Kg), plasma concentration post-dosing. Type of series: in vivo, mouse. Conditions: mice, iv dose of 4 mg/Kg and po dose of 20 mg/Kg. On the procedure: This is advantageous leading to comparatively lower doses or less frequent administration. The procedure followed was: Male C57BL/6 mice were used at 7-9 weeks age with 3 animals per group. Mice were dosed with test compound using single intravenous bolus or oral gavage. Blood samples were taken via submandibular or saphenous vein for analysis of plasma concentrations of compound by LC-MS/MS at the following timepoints: IV (3 mice): 0.083, 0.25, 0.5, 1, 2, 4, 8 and 24 hours post dosing, PO (3 mice): 0.25, 0.5, 1, 2, 4, 8 and 24 hours post dosing. LC-MS/MS method for the quantitative determination of test compound in corresponding biological matrix was developed. […] The results are shown graphically in FIGS. 1A to 1C (MCC950) and FIGS. 2A to 2C (MCC7840).
Consider `CC(C)n1ccc(S(=O)(=O)NC(=O)Nc2c3c(cc4c2CCC4)CCC3)n1` [MCC7840, N-((1,2,3,5,6,7-hexahydro-s-indacen-4-yl)carbamoyl)-1-isopropyl-1H-pyrazole-3-sulfonamide], for which the “area under the curve (AUC) in comparison to MCC950” value is reported as “increased”, the “half-life in comparison to MCC950” value is listed as “extended half-life” and the “maximum concentration (Cmax) in comparison to MCC950” value is “increased maximum concentration (Cmax)”.

The next series deals with NLRP3 inflammasome (Homo sapiens, UniProt Q96P20). Nature of the series: Inhibition of IL-1β release, NLRP3 inflammasome activation assay in HMDM. Type of series: cell-based. The conditions noted are these: commercial compounds (Table 9), read-out: HMDM IC50 vs NLRP3. How it is done: The following assays can be used to determine inhibitory activity of test compounds on the NLRP3 inflammasome using common stimuli such as adenosine triphosphate, nigericin, LeuLeu-OMe or monosodium urate crystals (MSU).
NLRP3 inflammasome, sequence (Q96P20 whole entry): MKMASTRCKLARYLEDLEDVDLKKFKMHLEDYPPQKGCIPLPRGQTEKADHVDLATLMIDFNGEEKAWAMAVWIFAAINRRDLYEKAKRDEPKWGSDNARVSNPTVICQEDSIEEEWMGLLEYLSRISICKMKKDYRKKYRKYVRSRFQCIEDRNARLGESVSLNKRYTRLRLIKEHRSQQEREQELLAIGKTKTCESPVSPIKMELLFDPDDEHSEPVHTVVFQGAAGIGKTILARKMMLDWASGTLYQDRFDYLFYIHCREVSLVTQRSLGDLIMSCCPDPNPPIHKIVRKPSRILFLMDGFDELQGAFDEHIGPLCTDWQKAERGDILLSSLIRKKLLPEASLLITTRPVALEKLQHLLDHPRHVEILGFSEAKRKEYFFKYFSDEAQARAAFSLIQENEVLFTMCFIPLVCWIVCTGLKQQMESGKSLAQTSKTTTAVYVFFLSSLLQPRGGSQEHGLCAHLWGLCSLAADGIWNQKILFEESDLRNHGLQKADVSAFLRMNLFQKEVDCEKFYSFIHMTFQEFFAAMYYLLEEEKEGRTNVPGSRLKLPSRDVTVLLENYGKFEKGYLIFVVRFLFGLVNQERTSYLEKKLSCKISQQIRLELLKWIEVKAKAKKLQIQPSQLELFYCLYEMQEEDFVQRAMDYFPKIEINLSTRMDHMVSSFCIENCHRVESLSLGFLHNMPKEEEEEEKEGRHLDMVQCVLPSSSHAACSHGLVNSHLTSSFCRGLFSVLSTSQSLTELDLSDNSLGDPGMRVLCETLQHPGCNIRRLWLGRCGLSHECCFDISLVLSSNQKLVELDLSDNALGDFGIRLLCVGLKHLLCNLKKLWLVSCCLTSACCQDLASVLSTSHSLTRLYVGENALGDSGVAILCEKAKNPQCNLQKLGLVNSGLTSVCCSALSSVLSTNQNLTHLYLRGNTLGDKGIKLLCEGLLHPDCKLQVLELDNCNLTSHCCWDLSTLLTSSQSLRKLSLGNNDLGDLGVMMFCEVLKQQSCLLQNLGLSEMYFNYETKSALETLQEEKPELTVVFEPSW
To generate HMDM, human monocytes are isolated from buffy coat blood using Ficoll-Plaque Plus (GE Healthcare) and density centrifugation. CD14^+ cell selection is performed using MACS magnetic beads (Miltenyl Biotec).
HMDM are seeded at 1×10^5/ml. […] Medium is removed and replaced with serum free medium (SFM) containing test compound 30 min prior to NLRP3 stimulation. […] ATP can be sourced from Sigma Aldrich, nigericin and MSU from Invivogen and LeuLeu-Ome from Chem-Impex International.
For ELISA and cell death assays cells are seeded in 96 well plates. Supernatants are removed and analysed using ELISA kits according to the manufacturer's instructions (DuoSet® R&D Systems, ReadySetGo!® eBioscience, BD OptEIA™, or Perkin Elmer AlphaLISA®). Cell death is assessed by measurement of LDH release relative to a 100% cell lysis control using the CytoTox96® non-radioactive cytotoxicity assay (Promega).
For the compound `CCCCNC(=O)NS(=O)(=O)c1ccc(N)cc1` [Carbutamide, reference compound], the IC50 was over 200000 nM.
For the compound `CCC1=C(C)CN(C(=O)NCCc2ccc(S(=O)(=O)NC(=O)NC3CCC(C)CC3)cc2)C1=O` (centres unmarked) [Glimepiride, reference compound], the IC50 was determined as 92000 nM.
Regarding `CCC1=C(C)CN(C(=O)NCCc2ccc(S(N)(=O)=O)cc2)C1=O` [Glimespiride precursor, reference compound], the IC50 is over 200000 nM.
Take `Cc1cnc(C(=O)NCCc2ccc(S(N)(=O)=O)cc2)cn1` [Glipizide precursor, reference compound]: the IC50 is over 50000 nM.
With `COc1ccc2c(c1)C(=O)N(CCc1ccc(S(=O)(=O)NC(=O)NC3CCCCC3)cc1)C(=O)C2(C)C` [Gliquidone, N-(cyclohexylcarbamoyl)-4-(2-(7-methoxy-4,4-dimethyl-1,3-dioxo-3,4-dihydroisoquinolin-2(1H)-yl)ethyl)benzenesulfonamide, reference compound], the IC50 is 32000 nM.

Still in this series, the particulars now being: inhibition of IL-1β release, class symbols, read-out: Avg. IL-1β IC50 HMDM.
Consider `O=C(Nc1c2c(cc3c1CCC3)CCC2)NS(=O)(=O)c1ccn(Cc2ccccc2)n1` [1-benzyl-N-((1,2,3,5,6,7-hexahydro-s-indacen-4-yl)carbamoyl)-1H-pyrazole-3-sulfonamide], for which the 50% inhibitory concentration (IC50) was under 10000 nM.
Regarding `O=C(Nc1c2c(cc3c1CCC3)CCC2)NS(=O)(=O)c1ccn(C2CCCCC2)n1` [1-cyclohexyl-N-((1,2,3,5,6,7-hexahydro-s-indacen-4-yl)carbamoyl)-1H-pyrazole-3-sulfonamide], the IC50 is under 1000 nM.
Turning to `O=C(Nc1c2c(cc3c1CCC3)CCC2)NS(=O)(=O)c1ccn(C2CC2)n1` [1-cyclopropyl-N-((1,2,3,5,6,7-hexahydro-s-indacen-4-yl)carbamoyl)-1H-pyrazole-3-sulfonamide], the concentration for half-maximal inhibition (IC50) is under 100 nM.
For `CN(C)c1ccc2c(CC(=O)NCCc3ccc(S(=O)(=O)NC(=O)Nc4c5c(cc6c4CCC6)CCC5)cc3)cc(=O)oc2c1` [2-(7-(Dimethylamino)-2-oxo-2H-chromen-4-yl)-N-(4-(N-(1,2,3,5,6,7-hexahydro-s-indacen-4-ylcarbamoyl)sulfamoyl)phenethyl)acetamide], the IC50 is under 1000 nM.
The same measure, in the same setting: for `NCCCn1cc(CCC(=O)Nc2cccc(S(=O)(=O)NC(=O)Nc3c4c(cc5c3CCC5)CCC4)c2)nn1` [3-(1-(3-aminopropyl)-1H-1,2,3-triazol-4-yl)-N-(3-(N-((1,2,3,5,6,7-hexahydro-s-indacen-4-yl)carbamoyl)sulfamoyl)phenyl)propanamide] the value was under 1000 nM; for `C#CCNC(=O)CCc1ccc(S(=O)(=O)NC(=O)Nc2c3c(cc4c2CCC4)CCC3)cc1` [3-(4-(N-((1,2,3,5,6,7-hexahydro-s-indacen-4-yl)carbamoyl)sulfamoyl)phenyl)-N-(prop-2-yn-1-yl)propanamide], under 100 nM.
Regarding `NC(=O)c1cccc(S(=O)(=O)NC(=O)Nc2c3c(cc4c2CCC4)CCC3)c1` [3-(N-(1,2,3,5,6,7-Hexahydro-s-indacen-4-ylcarbamoyl)sulfamoyl)benzamide], the IC50 was under 1000 nM.
As to `O=C(Nc1c2c(cc3c1CCC3)CCC2)NS(=O)(=O)c1cccc(C(=O)O)c1` [3-(N-((1,2,3,5,6,7-hexahydro-s-indacen-4-yl)carbamoyl)sulfamoyl)benzoic acid], the IC50 was under 100 nM.
Take `O=C(Nc1c2c(cc3c1CCC3)CCC2)NS(=O)(=O)c1cccc(OC(F)F)c1` [3-(difluoromethoxy)-N-((1,2,3,5,6,7-hexahydro-s-indacen-4-yl)carbamoyl)benzenesulfonamide]: the IC50 was under 1000 nM.
With `[N-]=[N+]=Nc1cccc(S(=O)(=O)NC(=O)Nc2c3c(cc4c2CCC4)CCC3)c1` [3-Azido-N-((1,2,3,5,6,7-hexahydro-s-indacen-4-yl)carbamoyl)benzenesulfonamide], the IC50 is under 1000 nM.
For `COc1cc(NC(=O)NS(=O)(=O)c2cc(C(C)(C)O)co2)c2ncccc2c1` [4-(2-hydroxypropan-2-yl)-N-((6-methoxyquinolin-8-yl)carbamoyl)furan-2-sulfonamide], the IC50 was under 10000 nM.
On the same count and under the same terms, for `CC(C)(O)c1coc(S(=O)(=O)NC(=O)Nc2cccc3cccnc23)c1` [4-(2-hydroxypropan-2-yl)-N-(quinolin-8-ylcarbamoyl)furan-2-sulfonamide] the value was under 10000 nM; for `[2H]C([2H])([2H])C(O)(c1cc(S(=O)(=O)NC(=O)Nc2c3c(cc4c2CCO4)CCC3)oc1C)C([2H])([2H])[2H]` [4-(2-hydroxypropan-2-yl-1,1,1,3,3,3-d6)-5-methyl-N-((3,5,6,7-tetrahydro-2H-indeno[5,6-b]furan-4-yl)carbamoyl)furan-2-sulfonamide], under 100 nM.
Take `O=C(Nc1c2c(cc3c1CCC3)CCC2)NS(=O)(=O)c1ccc(Cl)cc1` [4-chloro-N-((1,2,3,5,6,7-hexahydro-s-indacen-4-yl)carbamoyl)benzenesulfonamide]: the IC50 was under 1000 nM.
Still for that read-out and setting: for `CN(C)Cc1ccc(S(=O)(=O)NC(=O)Nc2c3c(cc4c2CCC4)CCC3)o1` [5-((dimethylamino)methyl)-N-((1,2,3,5,6,7-hexahydro-s-indacen-4-yl)carbamoyl)furan-2-sulfonamide] the value was under 100 nM; for `CN(C)c1cccc2c(S(=O)(=O)NC(=O)Nc3c4c(cc5c3CCC5)CCC4)cccc12` [5-(dimethylamino)-N-((1,2,3,5,6,7-hexahydro-s-indacen-4-yl)carbamoyl)naphthalene-1-sulfonamide], under 1000 nM.
As to `CCc1ccc(S(=O)(=O)NC(=O)Nc2c3c(cc4c2CCC4)CCC3)o1` [5-ethyl-N-((1,2,3,5,6,7-hexahydro-s-indacen-4-yl)carbamoyl)furan-2-sulfonamide], the IC50 was under 1000 nM.
Consider `CN(C)S(=O)(=O)c1cccc(S(=O)(=O)NC(=O)Nc2c3c(cc4c2CCC4)CCC3)c1` [N1-((1,2,3,5,6,7-hexahydro-s-indacen-4-yl)carbamoyl)-N3,N3-dimethylbenzene-1,3-disulfonamide], for which the IC50 is under 100 nM.
`CC(C)(O)c1ccnc(S(=O)(=O)NC(=O)Nc2c3c(cc4c2CCC4)CCC3)c1` [N-(1,2,3,5,6,7-hexahydro-s-indacen-4-ylcarbamoyl)-4-(2-hydroxypropan-2-yl)pyridine-2-sulfonamide]: the IC50 is under 100 nM.
`O=C(CCc1cn(CCCNc2ccc([N+](=O)[O-])c3nonc23)nn1)Nc1cccc(S(=O)(=O)NC(=O)Nc2c3c(cc4c2CCC4)CCC3)c1` [N-(3-(N-((1,2,3,5,6,7-hexahydro-s-indacen-4-yl)carbamoyl)sulfamoyl)phenyl)-3-(1-(3-((7-nitrobenzo[c][1,2,5]oxadiazol-4-yl)amino)propyl)-1H-1,2,3-triazol-4-yl)propanamide]: the IC50 was under 10000 nM.
As for `C#CCCC(=O)Nc1cccc(S(=O)(=O)NC(=O)Nc2c3c(cc4c2CCC4)CCC3)c1` [N-(3-(N-((1,2,3,5,6,7-hexahydro-s-indacen-4-yl)carbamoyl)sulfamoyl)phenyl)pent-4-ynamide], the IC50 was under 1000 nM.
